Test results from ChEMBL document CHEMBL4138123, “Design, synthesis and biological evaluation of novel pyrazolochalcones as potential modulators of PI3K/Akt/mTOR pathway and inducers of apoptosis in breast cancer cells” (Eur J Med Chem, 2017).

Assays:
RXF 393 [1] = assay: Cytotoxicity against human RXF393 cells assessed as cell growth at 10 uM after 48 hrs by sulforhodamine B assay relative to control; type: functional; settings: RXF 393, 48 h, read-out: Activity
MCF7 = assay: Cytotoxicity against human MCF7 cells assessed as cell growth at 1 uM after 48 hrs by sulforhodamine B assay relative to control; type: functional; settings: MCF7, 48 h, read-out: Activity
NCI-H522 = assay: Cytotoxicity against human NCI-H522 cells assessed as cell growth at 0.01 uM after 48 hrs by sulforhodamine B assay relative to control; type: functional; settings: NCI-H522, 48 h, read-out: Activity
OVCAR-5 [2] = assay: Cytotoxicity against human OVCAR5 cells assessed as cell growth at 0.01 uM after 48 hrs by sulforhodamine B assay relative to control; type: functional; settings: OVCAR-5, 48 h, read-out: Activity
NCI/ADR-RES = assay: Cytotoxicity against human NCI/ADR-RES cells assessed as cell growth at 0.01 uM after 48 hrs by sulforhodamine B assay relative to control; type: functional; settings: read-out: Activity
OVCAR-5 [3] = assay: Cytotoxicity against human OVCAR5 cells assessed as cell growth at 100 uM after 48 hrs by sulforhodamine B assay relative to control; type: functional; settings: OVCAR-5, 48 h, read-out: Activity
COLO 205 = assay: Cytotoxicity against human COLO205 cells assessed as cell growth at 0.1 uM after 48 hrs by sulforhodamine B assay relative to control; type: functional; settings: COLO 205, 48 h, read-out: Activity
K562 = assay: Cytotoxicity against human K562 cells assessed as cell growth at 10 uM after 48 hrs by sulforhodamine B assay relative to control; type: functional; settings: K562, 48 h, read-out: Activity
U-251 = assay: Cytotoxicity against human U251 cells assessed as cell growth at 100 uM after 48 hrs by sulforhodamine B assay relative to control; type: functional; settings: U-251, 48 h, read-out: Activity
DU-145 = assay: Cytotoxicity against human DU145 cells assessed as cell growth at 1 uM after 48 hrs by sulforhodamine B assay relative to control; type: functional; settings: DU-145, 48 h, read-out: Activity
SNB-19 = assay: Cytotoxicity against human SNB19 cells assessed as cell growth at 0.01 uM after 48 hrs by sulforhodamine B assay relative to control; type: functional; settings: SNB-19, 48 h, read-out: Activity
UACC-257 [4] = assay: Cytotoxicity against human UACC257 cells assessed as cell growth at 1 uM after 48 hrs by sulforhodamine B assay relative to control; type: functional; settings: UACC-257, 48 h, read-out: Activity
PC-3 = assay: Cytotoxicity against human PC3 cells assessed as growth inhibition after 48 hrs by sulforhodamine B assay; type: functional; settings: PC-3, 48 h
NCI-H226 = assay: Cytotoxicity against human NCI-H226 cells assessed as growth inhibition after 48 hrs by sulforhodamine B assay; type: functional; settings: NCI-H226, 48 h
TK-10 = assay: Cytotoxicity against human TK10 cells assessed as cell growth at 10 uM after 48 hrs by sulforhodamine B assay relative to control; type: functional; settings: TK-10, 48 h, read-out: Activity
HCC 2998 = assay: Cytotoxicity against human HCC2998 cells assessed as cell growth at 0.1 uM after 48 hrs by sulforhodamine B assay relative to control; type: functional; settings: HCC 2998, 48 h, read-out: Activity
RXF 393 [5] = assay: Cytotoxicity against human RXF393 cells assessed as cell growth at 1 uM after 48 hrs by sulforhodamine B assay relative to control; type: functional; settings: RXF 393, 48 h, read-out: Activity
HCT-116 = assay: Cytotoxicity against human HCT116 cells assessed as growth inhibition after 48 hrs by sulforhodamine B assay; type: functional; settings: HCT-116, 48 h
UO-31 = assay: Cytotoxicity against human UO31 cells assessed as cell growth at 1 uM after 48 hrs by sulforhodamine B assay relative to control; type: functional; settings: UO-31, 48 h, read-out: Activity
MOLT-4 = assay: Cytotoxicity against human MOLT4 cells assessed as cell growth at 0.1 uM after 48 hrs by sulforhodamine B assay relative to control; type: functional; settings: MOLT-4, 48 h, read-out: Activity
SN12C [6] = assay: Cytotoxicity against human SN12C cells assessed as cell growth at 1 uM after 48 hrs by sulforhodamine B assay relative to control; type: functional; settings: read-out: Activity
NCI-H322M = assay: Cytotoxicity against human NCI-H322M cells assessed as growth inhibition after 48 hrs by sulforhodamine B assay; type: functional; settings: for CC50: read-out: LC50 (the source's name)
NCI-H23 [7] = assay: Cytotoxicity against human NCI-H23 cells assessed as cell growth at 0.01 uM after 48 hrs by sulforhodamine B assay relative to control; type: functional; settings: NCI-H23, 48 h, read-out: Activity
HL-60(TB) = assay: Cytotoxicity against human HL-60(TB) cells assessed as cell growth at 100 uM after 48 hrs by sulforhodamine B assay relative to control; type: functional; settings: HL-60, 48 h, read-out: Activity
SK-OV-3 = assay: Cytotoxicity against human SKOV3 cells assessed as cell growth at 10 uM after 48 hrs by sulforhodamine B assay relative to control; type: functional; settings: SK-OV-3, 48 h, read-out: Activity
NCI-H23 [8] = assay: Cytotoxicity against human NCI-H23 cells assessed as cell growth at 100 uM after 48 hrs by sulforhodamine B assay relative to control; type: functional; settings: NCI-H23, 48 h, read-out: Activity
MDA-MB-231 = assay: Cytotoxicity against human MDA-MB-231 cells assessed as growth inhibition after 48 hrs by MTT assay; type: functional, cell-based; settings: MDA-MB-231, 48 h
OVCAR-4 [9] = assay: Cytotoxicity against human OVCAR4 cells assessed as growth inhibition after 48 hrs by sulforhodamine B assay; type: functional; settings: OVCAR-4, 48 h
SN12C [10] = assay: Cytotoxicity against human SN12C cells assessed as cell growth at 0.1 uM after 48 hrs by sulforhodamine B assay relative to control; type: functional; settings: read-out: Activity
HT-29 = assay: Cytotoxicity against human HT-29 cells assessed as cell growth at 10 uM after 48 hrs by sulforhodamine B assay relative to control; type: functional; settings: HT-29, 48 h, read-out: Activity
NCI-H460 = assay: Cytotoxicity against human NCI-H460 cells assessed as cell growth at 0.1 uM after 48 hrs by sulforhodamine B assay relative to control; type: functional; settings: NCI-H460, 48 h, read-out: Activity
OVCAR-8 = assay: Cytotoxicity against human OVCAR8 cells assessed as cell growth at 100 uM after 48 hrs by sulforhodamine B assay relative to control; type: functional; settings: OVCAR-8, 48 h, read-out: Activity
UACC-257 [11] = assay: Cytotoxicity against human UACC257 cells assessed as cell growth at 100 uM after 48 hrs by sulforhodamine B assay relative to control; type: functional; settings: UACC-257, 48 h, read-out: Activity
OVCAR-3 = assay: Cytotoxicity against human OVCAR3 cells assessed as cell growth at 0.01 uM after 48 hrs by sulforhodamine B assay relative to control; type: functional; settings: OVCAR-3, 48 h, read-out: Activity
OVCAR-4 [12] = assay: Cytotoxicity against human OVCAR4 cells assessed as cell growth at 100 uM after 48 hrs by sulforhodamine B assay relative to control; type: functional; settings: OVCAR-4, 48 h, read-out: Activity

Compound `COc1ccc(-c2cc(/C=C/C(=O)c3ccc(N)cc3)[nH]n2)cc1` has a growth at 10 µM (RXF 393 [1]) of -47%, a growth at 1 µM (MCF7) of 42% and a growth at 0.01 µM (NCI-H522) of 84%. The growth at 0.01 µM (OVCAR-5 [2]) was 99%, the growth at 0.01 µM (NCI/ADR-RES) was 101% and the growth at 100 µM (OVCAR-5 [3]) was -86%. The growth at 0.1 µM (COLO 205) was 96%, the growth at 10 µM (K562) was 4% and the growth at 100 µM (U-251) was -100%. The growth at 1 µM (DU-145) was 64%, the growth at 0.01 µM (SNB-19) was 92% and the growth at 1 µM (UACC-257 [4]) was 90%. The GI50 (PC-3) was 2420 nM, the LC50 (PC-3) was 39.8 µM and the TGI (PC-3) was 10.1 µM. The GI50 (NCI-H226) was 2000 nM, the LC50 (concentration killing 50% of cells) (NCI-H226) was 92.1 µM and the TGI (NCI-H226) was 5.57 µM. For the same compound, the growth at 10 µM (TK-10) was 12%, the growth at 0.1 µM (HCC 2998) was 98% and the growth at 1 µM (RXF 393 [5]) was 78%. It also gave a GI50 (HCT-116) of 1380 nM, a TGI (HCT-116) of 3.61 µM and a growth at 1 µM (UO-31) of 61%. The growth at 0.1 µM (MOLT-4) was 98%, the growth at 1 µM (SN12C [6]) was 76% and the GI50 (NCI-H322M) was 1840 nM. For the same compound, the TGI (NCI-H322M) was 9.27 µM, the CC50 (NCI-H322M) was 31.6 µM and the growth at 0.01 µM (NCI-H23 [7]) was 92%. For the same compound, the growth at 100 µM (HL-60(TB)) was -47%, the growth at 10 µM (SK-OV-3) was 23% and the growth at 100 µM (NCI-H23 [8]) was -62%. The IC50 (MDA-MB-231) was 1700 nM, the GI50 (OVCAR-4 [9]) was 1080 nM and the LC50 (OVCAR-4 [9]) was 51.2 µM. The TGI (OVCAR-4 [9]) was 8.01 µM, the growth at 0.1 µM (SN12C [10]) was 94% and the growth at 10 µM (HT-29) was -10%. The growth at 0.1 µM (NCI-H460) was 102%, the growth at 100 µM (OVCAR-8) was -41% and the growth at 100 µM (UACC-257 [11]) was -95%. For the same compound, the growth at 0.01 µM (OVCAR-3) was 104% and the growth at 100 µM (OVCAR-4 [12]) was -68%.

`COc1cc(C(=O)/C=C/c2cc(-c3ccc4c(c3)OCO4)n[nH]2)cc(OC)c1OC` gave a growth at 10 µM (RXF 393 [1]) of -76%, a growth at 1 µM (MCF7) of 53% and a growth at 0.01 µM (NCI-H522) of 97%. It also gave a growth at 0.01 µM (OVCAR-5 [2]) of 98%, a growth at 0.01 µM (NCI/ADR-RES) of 95% and a growth at 100 µM (OVCAR-5 [3]) of -56%. It also gave a growth at 0.1 µM (COLO 205) of 98%, a growth at 10 µM (K562) of 3% and a growth at 100 µM (U-251) of -98%. The growth at 1 µM (DU-145) was 97%, the growth at 0.01 µM (SNB-19) was 92% and the growth at 1 µM (UACC-257 [4]) was 96%. The GI50 (PC-3) was 1510 nM, the LC50 (PC-3) was 12.4 µM and the TGI (PC-3) was 4.02 µM. The GI50 (NCI-H226) was 1520 nM, the LC50 (concentration killing 50% of cells) (NCI-H226) was greater than 100 µM and the TGI (NCI-H226) was 4.25 µM. For the same compound, the growth at 10 µM (TK-10) was -18%, the growth at 0.1 µM (HCC 2998) was 100% and the growth at 1 µM (RXF 393 [5]) was 67%. The GI50 (HCT-116) was 1900 nM, the LC50 (HCT-116) was greater than 100 µM and the TGI (HCT-116) was 4.63 µM. For the same compound, the growth at 1 µM (UO-31) was 71%, the growth at 0.1 µM (MOLT-4) was 98% and the growth at 1 µM (SN12C [6]) was 90%. For the same compound, the GI50 (NCI-H322M) was 2090 nM, the TGI (NCI-H322M) was 6.25 µM and the CC50 (NCI-H322M) was 24.3 µM. It also gave a growth at 0.01 µM (NCI-H23 [7]) of 95%, a growth at 100 µM (HL-60(TB)) of -31% and a growth at 10 µM (SK-OV-3) of 19%. The growth at 100 µM (NCI-H23 [8]) was -83%, the IC50 (MDA-MB-231) was 1200 nM and the GI50 (OVCAR-4 [9]) was 880 nM. For the same compound, the LC50 (OVCAR-4 [9]) was 20.1 µM, the TGI (OVCAR-4 [9]) was 4.24 µM and the growth at 0.1 µM (SN12C [10]) was 96%. For the same compound, the growth at 10 µM (HT-29) was -22%, the growth at 0.1 µM (NCI-H460) was 100% and the growth at 100 µM (OVCAR-8) was -92%. The growth at 100 µM (UACC-257 [11]) was -97%, the growth at 0.01 µM (OVCAR-3) was 98% and the growth at 100 µM (OVCAR-4 [12]) was -100%.
